Reference: ChEMBL document CHEMBL1629671, “Activity of posaconazole and other antifungal agents against Mucorales strains identified by sequencing of internal transcribed spacers” (2009)
≈ marks a conversion by molar mass, not a printed value.

Columns and labels:
Type in all cases: functional
Rhizopus arrhizus [1] = assay: Antifungal activity against Rhizopus oryzae after 24 hrs by microdilution method
Rhizopus arrhizus [2] = assay: Antifungal activity against Rhizopus oryzae after 48 hrs by microdilution method
Mucor circinelloides [3] = assay: Antifungal activity against Mucor circinelloides after 24 hrs by microdilution method
Mucor circinelloides [4] = assay: Antifungal activity against Mucor circinelloides after 48 hrs by microdilution method
Lichtheimia corymbifera [5] = assay: Antifungal activity against Mycocladus corymbifer after 24 hrs by microdilution method
Lichtheimia corymbifera [6] = assay: Antifungal activity against Mycocladus corymbifer after 48 hrs by microdilution method
[7] = tested on: Cunninghamella bertholletiae; assay: Antifungal activity against Cunninghamella bertholletiae after 24 hrs by microdilution method
[8] = tested on: Cunninghamella bertholletiae; assay: Antifungal activity against Cunninghamella bertholletiae after 48 hrs by microdilution method
[9] = Antifungal activity against Rhizopus microsporus after 24 hrs by microdilution method
[10] = Antifungal activity against Rhizopus microsporus after 48 hrs by microdilution method
[11] = Antifungal activity against Rhizomucor pusillus after 24 hrs by microdilution method
[12] = Antifungal activity against Rhizomucor pusillus after 48 hrs by microdilution method
[13] = Antifungal activity against Rhizomucor variabilis after 24 hrs by microdilution method
[14] = Antifungal activity against Rhizomucor variabilis after 48 hrs by microdilution method
Cunninghamella [15] = assay: Antifungal activity against Cunninghamella spp. after 24 hrs by microdilution method
Cunninghamella [16] = assay: Antifungal activity against Cunninghamella spp. after 48 hrs by microdilution method
Actinomucor [17] = assay: Antifungal activity against Actinomucor spp. after 24 hrs by microdilution method
Actinomucor [18] = assay: Antifungal activity against Actinomucor spp. after 48 hrs by microdilution method
Apophysomyces [19] = assay: Antifungal activity against Apophysomyces spp. after 24 hrs by microdilution method
Apophysomyces [20] = assay: Antifungal activity against Apophysomyces spp. after 48 hrs by microdilution method

| Structure (SMILES) | MIC (Rhizopus arrhizus [1]) [µg/mL] | MIC (Rhizopus arrhizus [2]) [µg/mL] | MIC (Mucor circinelloides [3]) [µg/mL] | MIC (Mucor circinelloides [4]) [µg/mL] | MIC (Lichtheimia corymbifera [5]) [µg/mL] | MIC (Lichtheimia corymbifera [6]) [µg/mL] | MIC [7] [µg/mL] | MIC [8] [µg/mL] | MIC [9] [µg/mL] | MIC [10] [µg/mL] | MIC [11] [µg/mL] | MIC [12] [µg/mL] | MIC [13] [µg/mL] | MIC [14] [µg/mL] | MIC (Cunninghamella [15]) [µg/mL] | MIC (Cunninghamella [16]) [µg/mL] | MIC (Actinomucor [17]) [µg/mL] | MIC (Actinomucor [18]) [µg/mL] | MIC (Apophysomyces [19]) [µg/mL] | MIC (Apophysomyces [20]) [µg/mL] |
| --- | --- | --- | --- | --- | --- | --- | --- | --- | --- | --- | --- | --- | --- | --- | --- | --- | --- | --- | --- | --- |
| CC[C@@H]([C@H](C)O)n1ncn(-c2ccc(N3CCN(c4ccc(OC[C@@H]5CO[C@@](Cn6cncn6)(c6ccc(F)cc6F)C5)cc4)CC3)cc2)c1=O [POSACONAZOLE] | 1.15 (≈ 1.64 µM) | 2 (≈ 2.85 µM) | 1.49 (≈ 2.13 µM) | 2.69 (≈ 3.84 µM) | 0.41 (≈ 0.585 µM) | 0.67 (≈ 0.956 µM) | 2.3 (≈ 3.28 µM) | 4.59 (≈ 6.55 µM) | 0.79 (≈ 1.13 µM) | 3.17 (≈ 4.52 µM) | 0.16 (≈ 0.228 µM) | 0.28 (≈ 0.4 µM) | 1.41 (≈ 2.01 µM) | 16 (≈ 22.8 µM) | 0.25 (≈ 0.357 µM) | 4 (≈ 5.71 µM) | 0.06 (≈ 0.0856 µM) | 0.125 (≈ 0.178 µM) | 0.5 (≈ 0.713 µM) | 1 (≈ 1.43 µM) |
| CN(C/C=C/C#CC(C)(C)C)Cc1cccc2ccccc12 [TERBINAFINE] | 24.2 (≈ 83.2 µM) | 32 (≈ 110 µM) | 21.5 (≈ 73.9 µM) | 32 (≈ 110 µM) | 0.5 (≈ 1.72 µM) | 1 (≈ 3.43 µM) | 0.4 (≈ 1.37 µM) | 0.49 (≈ 1.68 µM) | 0.71 (≈ 2.44 µM) | 1.41 (≈ 4.84 µM) | 0.22 (≈ 0.755 µM) | 0.33 (≈ 1.13 µM) | 32 (≈ 110 µM) | 32 (≈ 110 µM) | 0.13 (≈ 0.446 µM) | 0.18 (≈ 0.618 µM) | 0.125 (≈ 0.429 µM) | 0.36 (≈ 1.24 µM) | 2 (≈ 6.86 µM) | 2 (≈ 6.86 µM) |
| C[C@@H](c1ncncc1F)[C@](O)(Cn1cncn1)c1ccc(F)cc1F [VORICONAZOLE] | 12.1 (≈ 34.7 µM) | 16 (≈ 45.8 µM) | 16 (≈ 45.8 µM) | 16 (≈ 45.8 µM) | 14.5 (≈ 41.5 µM) | 16 (≈ 45.8 µM) | 16 (≈ 45.8 µM) | 16 (≈ 45.8 µM) | 8 (≈ 22.9 µM) | 8.98 (≈ 25.7 µM) | 5.28 (≈ 15.1 µM) | 6.06 (≈ 17.3 µM) | 16 (≈ 45.8 µM) | 16 (≈ 45.8 µM) | 16 (≈ 45.8 µM) | 16 (≈ 45.8 µM) | 16 (≈ 45.8 µM) | 22.6 (≈ 64.8 µM) | 16 (≈ 45.8 µM) | 16 (≈ 45.8 µM) |
| CCC(C)n1ncn(-c2ccc(N3CCN(c4ccc(OCC5COC(Cn6cncn6)(c6ccc(Cl)cc6Cl)O5)cc4)CC3)cc2)c1=O (stereo not given) [ITRACONAZOLE] | 4 (≈ 5.67 µM) | 6.96 (≈ 9.86 µM) | 11.9 (≈ 16.8 µM) | 16 (≈ 22.7 µM) | 0.68 (≈ 0.964 µM) | 1.35 (≈ 1.91 µM) | 3.17 (≈ 4.49 µM) | 10.1 (≈ 14.3 µM) | 1.59 (≈ 2.25 µM) | 3.56 (≈ 5.05 µM) | 0.29 (≈ 0.411 µM) | 0.44 (≈ 0.624 µM) | 16 (≈ 22.7 µM) | 16 (≈ 22.7 µM) | 0.5 (≈ 0.709 µM) | 4 (≈ 5.67 µM) | 2 (≈ 2.83 µM) | 2 (≈ 2.83 µM) | 16 (≈ 22.7 µM) | 16 (≈ 22.7 µM) |
| C[C@@H](c1nc(-c2ccc(C#N)cc2)cs1)[C@](O)(Cn1cncn1)c1ccc(F)cc1F [RAVUCONAZOLE] | 1 (≈ 2.29 µM) | 1.32 (≈ 3.02 µM) | 11.9 (≈ 27.2 µM) | 13.1 (≈ 30 µM) | 1.22 (≈ 2.79 µM) | 2 (≈ 4.57 µM) | 8 (≈ 18.3 µM) | 12.1 (≈ 27.7 µM) | 0.89 (≈ 2.03 µM) | 1.78 (≈ 4.07 µM) | 0.66 (≈ 1.51 µM) | 0.87 (≈ 1.99 µM) | 8 (≈ 18.3 µM) | 16 (≈ 36.6 µM) | 1 (≈ 2.29 µM) | 8 (≈ 18.3 µM) | 0.25 (≈ 0.571 µM) | 0.5 (≈ 1.14 µM) | 2 (≈ 4.57 µM) | 4 (≈ 9.14 µM) |
| C[C@@H]1[C@H](O)[C@@H](C)/C=C/C=C/C=C/C=C/C=C/C=C/C=C/[C@H](O[C@@H]2O[C@H](C)[C@@H](O)[C@H](N)[C@@H]2O)C[C@@H]2O[C@](O)(C[C@@H](O)C[C@@H](O)[C@H](O)CC[C@@H](O)C[C@@H](O)CC(=O)O[C@H]1C)C[C@H](O)[C@H]2C(=O)O [AMPHOTERICIN B] | 0.29 (≈ 0.314 µM) | 1 (≈ 1.08 µM) | 0.05 (≈ 0.0541 µM) | 0.15 (≈ 0.162 µM) | 0.08 (≈ 0.0866 µM) | 0.14 (≈ 0.152 µM) | 7.13 (≈ 7.72 µM) | 7.13 (≈ 7.72 µM) | 0.45 (≈ 0.487 µM) | 0.89 (≈ 0.963 µM) | 0.05 (≈ 0.0541 µM) | 0.1 (≈ 0.108 µM) | 0.03 (≈ 0.0325 µM) | 0.09 (≈ 0.0974 µM) | 2.83 (≈ 3.06 µM) | 4 (≈ 4.33 µM) | 1 (≈ 1.08 µM) | 1.41 (≈ 1.53 µM) | 2 (≈ 2.16 µM) | 8 (≈ 8.66 µM) |
